Laboratory results as given in PMC7694948, “Mitochondrial Targeting in an Anti-Austerity Approach Involving Bioactive Metabolites Isolated from the Marine-Derived Fungus Aspergillus sp” (Marine Drugs, 2020).
Read-outs that look alike come from different tables or passages of the source.

How the values were obtained:
[1] = target: T1, Mitochondrial complex II (succinate dehydrogenase/coenzyme Q reductase) (Bos taurus, UniProt P31039+P35720+Q3T189+Q95123); assay: MitoCheck Complex Activity Assay, complex II; format: biochemical, bovine; conditions: for IC50: bovine heart mitochondria
T1 construct: enzymatic activity of each complex derived from bovine heart mitochondria; purchased Cayman Chemical; host or cells: bovine heart mitochondria (tissue-derived, supplied in kit)
T1 sequence (P31039 44-665): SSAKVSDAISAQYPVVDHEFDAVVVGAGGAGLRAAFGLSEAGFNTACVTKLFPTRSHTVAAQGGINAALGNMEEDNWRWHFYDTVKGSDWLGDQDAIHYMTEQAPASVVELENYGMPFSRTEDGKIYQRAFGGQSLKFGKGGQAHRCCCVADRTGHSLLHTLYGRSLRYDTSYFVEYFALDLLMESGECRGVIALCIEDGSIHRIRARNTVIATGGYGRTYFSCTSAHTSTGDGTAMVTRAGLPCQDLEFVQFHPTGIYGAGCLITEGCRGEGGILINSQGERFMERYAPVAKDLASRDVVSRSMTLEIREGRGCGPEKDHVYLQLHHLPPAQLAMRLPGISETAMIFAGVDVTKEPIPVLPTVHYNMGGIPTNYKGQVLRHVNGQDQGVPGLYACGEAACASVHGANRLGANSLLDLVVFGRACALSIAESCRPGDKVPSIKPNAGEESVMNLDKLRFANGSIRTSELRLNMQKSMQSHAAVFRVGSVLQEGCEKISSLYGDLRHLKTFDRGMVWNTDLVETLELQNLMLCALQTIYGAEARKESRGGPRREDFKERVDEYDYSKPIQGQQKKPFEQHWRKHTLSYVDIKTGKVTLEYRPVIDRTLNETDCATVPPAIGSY
T1 sequence (Q3T189 29-280): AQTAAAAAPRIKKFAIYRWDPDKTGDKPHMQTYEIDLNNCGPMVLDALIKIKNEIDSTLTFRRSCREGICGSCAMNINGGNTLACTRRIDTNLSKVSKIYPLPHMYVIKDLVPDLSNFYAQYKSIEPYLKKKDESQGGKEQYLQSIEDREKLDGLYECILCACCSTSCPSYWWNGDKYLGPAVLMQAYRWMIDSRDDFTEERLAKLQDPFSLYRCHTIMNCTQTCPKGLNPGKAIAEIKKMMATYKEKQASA
T1 sequence (P35720 30-169): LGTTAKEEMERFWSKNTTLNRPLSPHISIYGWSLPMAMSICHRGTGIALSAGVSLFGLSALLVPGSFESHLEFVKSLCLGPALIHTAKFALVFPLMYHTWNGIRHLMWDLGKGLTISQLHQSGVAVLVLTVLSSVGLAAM
T1 sequence (Q95123 56-158): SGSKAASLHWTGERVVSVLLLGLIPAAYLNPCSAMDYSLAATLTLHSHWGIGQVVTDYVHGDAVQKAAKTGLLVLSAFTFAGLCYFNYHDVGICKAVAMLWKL
Protocol: (§1) The inhibitory activity of compound 1 on the mitochondrial electron transport chain (complexes I–V) was analyzed using MitoCheck Complex Activity Assay kits (Cayman Chemical) following the manufacturer’s instructions. The kits measured the enzymatic activity of each complex derived from bovine heart mitochondria in the following systems: Mitochondrial complex I (NADH oxidase/coenzyme Q reductase) activity was determined by measuring the decrease in NADH oxidation, which is reflected by a decrease in absorbance at 340 nm. Mitochondrial complex II (succinate dehydrogenase/coenzyme Q reductase) activity was assessed on the basis of the reduction rate of 2, 6-dichlorophenolindophenol (protonated by reduced coenzyme Q), which is reflected by a decrease in absorbance at 600 nm. Mitochondrial complex III (coenzyme Q cytochrome c oxidoreductase) activity was determined on the basis of the cytochrome c reduction rate, which is reflected by an increase in absorbance at 550 nm. Mitochondrial complex IV (cytochrome c oxidase) activity was determined by measuring the cytochrome c oxidation rate, which is reflected by a decrease in absorbance at 550 nm. Mitochondrial complex V (F1F0 ATP synthase) activity was determined by the NADH oxidation rate, which can be monitored at 340 nm.

[2] = tested on: oxygen consumption by PANC-1 cells; set-up: method as in PMID 32002808, PMID 26204821; conditions: cited from earlier work
breast cancer cells = tested on: breast cancer cells; set-up: method as in PMID 25574462; conditions: general culture conditions; cited from earlier work
[3] = target: T2, Mitochondrial complex IV (cytochrome c oxidase) (Bos taurus, UniProt P00396+P00415+P68530); assay: MitoCheck Complex Activity Assay, complex IV; format: biochemical; conditions: bovine heart mitochondria
T2 construct: enzymatic activity of each complex derived from bovine heart mitochondria; purchased Cayman Chemical; host or cells: bovine heart mitochondria (tissue-derived, supplied in kit)
Protocol: as §1, with “The” for “The inhibitory activity of compound 1 on the mitochondrial electron transport chain (complexes I–V) was analyzed using MitoCheck Complex Activity Assay kits (Cayman Chemical) following the manufacturer’s instructions. The”

CCRF-ADR5000 cells = tested on: CCRF-ADR5000 cells; set-up: method as in PMID 29707146; conditions: CCRF-ADR5000, general culture conditions; cited from earlier work
NALM6 cell lines = tested on: NALM6 cell lines; set-up: method as in PMID 28810515; conditions: NALM6, general culture conditions; cited from earlier work
[4] = tested on: human pancreatic carcinoma PANC-1 cells; assay: Cytotoxicity against PANC-1 cells under glucose-deficient or general culture conditions (WST-8); format: cell-based; conditions: for IC50: Homo sapiens, 12 h treatment, WST-8; for S.I. (selectivity index): difference in IC50 values for general culture and glucose-deficient media
Protocol: PANC-1 cells were maintained in DMEM supplemented with heat-inactivated 10% FBS and kanamycin (50 µg/mL) and grown at 37 °C in a 5% CO2 atmosphere. […] The general culture medium—that is, basal medium containing 10% FBS and […] glucose (final concentration, 25 mM)—was used for comparison. The assay was performed as previously described. Briefly, PANC-1 cells (1 × 10^4 cells/100 µL in 96-well plastic plates) were preincubated in DMEM containing 10% FBS for 24 h. The medium was then changed with either the general glucose medium or glucose-deficient medium to induce adaption to nutrient starvation. After 12-h incubation, serially diluted samples were added to the media. Then, the cells were incubated for an additional 12 h at 37 °C in a 5% CO2 atmosphere. Cell proliferation was identified using WST-8. The IC50 values were determined by linear interpolation of the growth inhibition curve. We assessed the selectivity of the antiproliferative activity (S.I.) on the basis of the difference in the IC50 values for the general culture and glucose-deficient media.

[5] = tested on: nasopharyngeal carcinoma cells; set-up: method as in PMID 27694907; conditions: general culture conditions; cited from earlier work
[6] = tested on: glucose-6-phosphate dehydrogenase; set-up: method as in PMID 26479318; conditions: against breast cancer cells; cited from earlier work
SUPB15 cell lines = tested on: SUPB15 cell lines; set-up: method as in PMID 28810515; conditions: SUPB15, general culture conditions; cited from earlier work
[7] = tested on: mitochondrial membrane potential of human pancreatic carcinoma PANC-1 cells; assay: Mitochondrial membrane potential (JC-1 MitoMP Detection Kit); format: cell-based; conditions: PANC-1 adapted to glucose-deficient medium; 1 h treatment; JC-1 Red/Green ratio
Protocol: Figure 2 Effect of compounds 1 and 2 on the mitochondrial membrane potential of human pancreatic carcinoma PANC-1 cells. PANC-1 cells that adapted to glucose-deficient medium in the 96-well plates were treated with the indicated concentrations of the compounds for 1 h. Next, JC-1 working solution was added for measuring the mitochondrial membrane potential, and the plate was incubated for 30 min. The fluorescence intensity of the cells was measured using a Tecan Infinite M1000 microplate reader at Ex 485 nm and Em 535 nm (Green color fluorescence) and Ex 535 nm and Em 595 nm (Red color fluorescence). Differences were considered significant at * p < 0.05.
The mitochondrial membrane potential of PANC-1 cells was evaluated using the JC-1 MitoMP Detection Kit (Dojindo Laboratories) following the manufacturer’s instructions. […] The fluorescence intensity of the cells was assessed using an Infinite M1000 microplate reader (Tecan Group Ltd., Mannedorf, Switzerland) at Ex 485 nm and Em 535 nm (Green color fluorescence) and Ex 535 nm and Em 595 nm (Red color fluorescence). The ratio of the two fluorescence intensities (Red vs. Green) was then calculated.

[8] = tested on: oxygen consumption by PANC-1 cells; assay: Oxygen consumption (Oxygen Consumption Rate Assay Kit); format: cell-based, human; conditions: PANC-1 in general glucose medium
Protocol: Figure 3 Effect of compounds 1 and 2 on the oxygen consumption by PANC-1 cells. The precultured PANC-1 cells in the 96-well plates were incubated in general culture medium for 12 h at 37 °C. The medium was then replaced with fresh medium; subsequently, the test compound was added, followed by addition of the phosphorescent probe to measure the oxygen consumption. The signals were measured with a Tecan Infinite M1000 microplate reader by using the time-resolved mode. Differences were considered significant at * p < 0.05. CCCP: carbonyl cyanide m-chlorophenylhydrazone.
The oxygen consumption of PANC-1 cells was analyzed using the Oxygen Consumption Rate Assay Kit (Cayman Chemical) following the manufacturer’s instructions. Briefly, precultured PANC-1 cells (8.0 × 10^4 cells) in black/clear bottom 96-well plates (Corning Incorporated) were incubated for 12 h at 37 °C in general glucose medium. […] The signals were measured using an Infinite M1000 microplate reader (Tecan Group Ltd., Zurich, Switzrland) in the time-resolved mode at Ex 380 nm and Em 650 nm for 180 min, with a 1-min time interval. Linear regression was applied after subtracting the blank, and the oxygen consumption rate was determined by the slope of each signal profile.

K562 cell lines = tested on: K562 cell lines; set-up: method as in PMID 26479318; conditions: K562, general culture conditions; cited from earlier work
[9] = target: Mitochondrial complex III (coenzyme Q cytochrome c oxidoreductase) (Bos taurus, UniProt P00125+P00157+P13272); assay: MitoCheck Complex Activity Assay, complex III; format: biochemical, bovine
Sequence of Mitochondrial complex III (coenzyme Q cytochrome c oxidoreductase) (P00125 85-325): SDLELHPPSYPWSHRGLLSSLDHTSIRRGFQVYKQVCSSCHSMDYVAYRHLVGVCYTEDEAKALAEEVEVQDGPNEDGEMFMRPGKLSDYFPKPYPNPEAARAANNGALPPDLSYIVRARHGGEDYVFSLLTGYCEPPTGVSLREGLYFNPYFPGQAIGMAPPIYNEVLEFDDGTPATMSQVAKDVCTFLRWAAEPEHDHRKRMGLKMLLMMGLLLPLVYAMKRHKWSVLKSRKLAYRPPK
Sequence of Mitochondrial complex III (coenzyme Q cytochrome c oxidoreductase) (P00157 whole entry): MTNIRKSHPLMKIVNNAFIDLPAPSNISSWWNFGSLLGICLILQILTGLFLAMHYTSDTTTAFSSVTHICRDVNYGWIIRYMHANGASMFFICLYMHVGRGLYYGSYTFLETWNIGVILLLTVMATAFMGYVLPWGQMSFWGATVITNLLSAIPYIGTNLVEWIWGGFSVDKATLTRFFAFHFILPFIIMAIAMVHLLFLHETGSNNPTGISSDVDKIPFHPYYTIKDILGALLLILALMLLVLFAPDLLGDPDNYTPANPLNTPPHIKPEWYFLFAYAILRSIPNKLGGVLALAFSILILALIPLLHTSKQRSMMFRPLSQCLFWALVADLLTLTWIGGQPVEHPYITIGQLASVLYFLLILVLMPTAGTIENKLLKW
Sequence of Mitochondrial complex III (coenzyme Q cytochrome c oxidoreductase) (P13272 whole entry): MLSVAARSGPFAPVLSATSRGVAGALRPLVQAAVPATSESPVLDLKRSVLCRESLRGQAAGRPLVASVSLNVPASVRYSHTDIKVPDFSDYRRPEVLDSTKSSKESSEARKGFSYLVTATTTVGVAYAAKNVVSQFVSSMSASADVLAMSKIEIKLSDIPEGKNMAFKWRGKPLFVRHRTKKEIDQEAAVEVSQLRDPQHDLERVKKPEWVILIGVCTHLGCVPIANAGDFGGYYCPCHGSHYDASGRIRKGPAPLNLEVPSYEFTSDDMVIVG
Protocol: as §1

U937 cell lines = tested on: U937 cell lines; set-up: method as in PMID 20796195; conditions: U937, general culture conditions; cited from earlier work
lung cancer cells = tested on: lung cancer cells; set-up: method as in PMID 26479318, PMID 21725807; conditions: general culture conditions; cited from earlier work
[10] = tested on: hepatocellular carcinoma cells; set-up: method as in PMID 28042511, PMID 29710489; conditions: general culture conditions; cited from earlier work
colon cancer cells = tested on: colon cancer cells; set-up: method as in PMID 26707141, PMID 20837130; conditions: general culture conditions; cited from earlier work
cervical carcinoma cells = tested on: cervical carcinoma cells; set-up: method as in PMID 24071573; conditions: general culture conditions; cited from earlier work
MCF-7 cells = tested on: MCF-7 cells; set-up: method as in PMID 18758101; conditions: 100 µg/mL (352 µM); cited from earlier work
P-388 cells = tested on: P-388 cells; set-up: method as in PMID 18758101; conditions: cited from earlier work
K-562 cells = tested on: K-562 cells; set-up: method as in PMID 18758101; conditions: cited from earlier work
[11] = target: Mitochondrial complex I (NADH oxidase/coenzyme Q reductase) (Bos taurus, UniProt P03887+P17694+P25708+P42026); assay: MitoCheck Complex Activity Assay, complex I; format: biochemical, bovine
Protocol: as §1

NCI-H460 cells = tested on: NCI-H460 cells; set-up: method as in PMID 18758101; conditions: 100 µg/mL (352 µM); cited from earlier work
A-549 cells = tested on: A-549 cells; set-up: method as in PMID 18758101; conditions: cited from earlier work
HL-60 cells = tested on: HL-60 cells; set-up: method as in PMID 18758101; conditions: cited from earlier work
[12] = target: Mitochondrial complex V (F1F0 ATP synthase) (Bos taurus, UniProt P00829+P00847+P19483+P32876); assay: MitoCheck Complex Activity Assay, complex V; format: biochemical, bovine
Protocol: as §1

SF-268 cells = tested on: SF-268 cells; set-up: method as in PMID 18758101; conditions: 100 µg/mL (352 µM); cited from earlier work
[13] = PANC-1, glucose-deficient medium, 12 h adaptation
[14] = conversion of 10 µg/mL, read-out: IC50

O=C(CC(=O)C(F)(F)F)c1cccs1 [thenoyltrifluoroacetone, reference compound]
IC50 [1]: 68 ± 0.01 µM

N#CC(C#N)=NNc1cccc(Cl)c1 [CCCP, carbonyl cyanide m-chlorophenylhydrazone]
effect on oxygen consumption [2]: increase the oxygen consumption

COc1cc(O)c2c(c1)C(=O)c1cc(C)cc(O)c1C2=O [Compound 1, physcion]
IC50 (breast cancer cells): 45.4 µM | IC50 [3]: 34 ± 0.3 µM | IC50 (CCRF-ADR5000 cells): 74.8 µM | IC50 (NALM6 cell lines): 5 µM | IC50 ([4]; PANC-1, general glucose medium): 1017 ± 0.05 µM | IC50 [4, 13]: 6 ± 0.1 µM | S.I. (selectivity index) [4]: 169.5 | IC50 [5]: 20 µM | inhibition of glucose-6-phosphate dehydrogenase [6]: specific inhibitor | IC50 (SUPB15 cell lines): 5 µM | effect on mitochondrial membrane potential [7]: dose-dependently decrease | effect on oxygen consumption [8]: inhibit oxygen consumption to a similar extent as antimycin A | IC50 (K562 cell lines): 12.5 µM | inhibition at 100 µM [9]: 9% | IC50 ([9]; bovine heart mitochondria): > 100 µM | IC50 (U937 cell lines): 27.9 µM | IC50 (lung cancer cells): 15.1 to 35.1 µM | IC50 [1]: 90 ± 0.11 µM | IC50 [10]: 10 µM | IC50 (colon cancer cells): 10 to 50 µM | IC50 (cervical carcinoma cells): 100 µM

C/C=C/C=C/c1cc2c(C=O)c(O)c(CC=C(C)C)cc2o1 [Compound 2, 2-(2′,3-epoxy-1′,3′,5′-heptatrienyl)-6-hydroxy-5-(3-methyl-2-butenyl) benzaldehyde]
cytotoxic effect (MCF-7 cells): more than 90% | IC50 [3]: 20 ± 0.3 µM | IC50 (P-388 cells): higher than 10 µg/mL | IC50 (P-388 cells; [14]): > 35.2 µM | IC50 (K-562 cells): higher than 10 µg/mL | IC50 (K-562 cells; [14]): > 35.2 µM | IC50 ([4]; PANC-1, general glucose medium): 859 ± 1 µM | IC50 [4, 13]: 1.7 ± 0.05 µM | selective growth-inhibitory activity under glucose-deficient vs general culture conditions ([4]; PANC-1): 505 fold | inhibition at 100 µM ([11]; 100 µM): 18% | IC50 ([11]; bovine heart mitochondria): > 100 µM | effect on mitochondrial membrane potential [7]: dose-dependently decrease | cytotoxic effect (NCI-H460 cells): more than 90% | effect on oxygen consumption [8]: inhibit oxygen consumption to a similar extent as antimycin A | IC50 (A-549 cells): higher than 10 µg/mL | IC50 (A-549 cells; [14]): > 35.2 µM | IC50 (HL-60 cells): higher than 10 µg/mL | IC50 (HL-60 cells; [14]): > 35.2 µM | inhibition of complex V ([12]; 100 µM): not inhibited | IC50 ([12]; bovine heart mitochondria): > 100 µM | inhibition at 100 µM [9]: 6% | IC50 ([9]; bovine heart mitochondria): > 100 µM | cytotoxic effect (SF-268 cells): more than 90% | inhibition at 100 µM ([1]; 100 µM): 24% | IC50 [1]: > 100 µM

CCCCCC[C@H]1C(=O)O[C@H](C)[C@H](NC(=O)c2cccc(NC=O)c2O)C(=O)O[C@@H](C)[C@@H]1OC(=O)CC(C)C [Antimycin A, reference compound]
IC50 ([4]; PANC-1, general glucose medium): 288 ± 0.5 µM | IC50 [4, 13]: 0.0003 µM | S.I. (selectivity index) [4]: 960,000 | effect on oxygen consumption [2]: reduces oxygen consumption | IC50 [9]: 0.03 ± 0.01 µM

COC(=O)[C@@]12Oc3ccc(-c4ccc5c(c4O)C(O)C4=C(O)C[C@H](C)[C@@H](O)[C@]4(C(=O)OC)O5)c(O)c3C(=O)C1=C(O)C[C@H](C)[C@H]2O (stereo partly drawn) [secalonic acid D]
effect on oxygen consumption [2]: increase the oxygen consumption
